Data reported in publication PMC9356275, “A quantitative high-throughput screen identifies compounds that lower expression of the SCA2-and ALS-associated gene ATXN2” (The Journal of Biological Chemistry, 2022).

Legend:
[1] = test system: ATXN2-luc; test: Secondary assays: ATXN2-luc in S2 and H2 cells, 12 doses, Bright-Glo; type: cell-based, human; details: summary data; for IC50: ATXN2-luc luciferase assays in H2 and S2 cells, 12 doses plus a zero dose, read-out: Mean IC50; for min ATXN2-luc (%): minimum ATXN2-luc signal over 12 doses, H2 and S2 cells
Procedure: (§1) The values for H2 and S2 were used as replicates to calculate IC50s and to assess cell viability.
(§2) Compounds were plated at 2× concentrations in phenol red–free DMEM in 25 μl in 384-well plates with each compound dose plated in triplicate. An equal volume of S2, H2, or SC cells (24,000 cells/well) suspended in phenol red–free DMEM with 10% fetal bovine serum and 1× penicillin/streptomycin were added. Cells were grown 24 h and then assayed first by using the CellTiter-Fluor reagent (20 μl) followed by the addition of Bright-Glo (65 μl) luciferase assay, using a multimode plate reader (Beckman; DT880). Values were reported as the mean ± SD with n = 3. IC50s were determined by the Hill coefficient method using an online tool (https://www.aatbio.com/tools/ic50-calculator).

[2] = test system: CMV-luc; test: Secondary assays: CMV-luc in SC cells, Bright-Glo; type: cell-based, human; details: minimum CMV-luc signal in SC cells over 12 doses; summary data
Procedure: as §2

[3] = test system: S2, H2 or SC cells; test: Secondary assays: multiplexed cell viability (CellTiter-Fluor)
Procedure: as §1, §2

[4] = minimum viability, multiplexed CellTiter-Fluor, over 12 doses, summary data

Compound | IC50 [1] [nM] | min ATXN2-luc (%) [1] [%] | min SC luc (%) [2] [%] | min viability (%) [3, 4] [%] | min viability (%) [3] [%]
Cc1cnc(NC(=O)CN2CCN(c3ccccn3)CC2)s1 [MLS000035284-02] | 12900 | 38.5658 | 4.094 | 76.8459 | 
Clc1ccc(C[n+]2cc(-c3ccccc3)n3c2CCCCC3)c(Cl)c1.[Br-] [MLS000420216-02] | 8080 | 56.4685 | 72.1585 | 84.5162 | 
S=C(NCCCN1CCOCC1)N1CCN(c2nc(-c3ccccc3)cs2)CC1 [MLS000706289-02] | 6850 | 61.6491 | 79.3012 | 89.1129 | 
C[C@@H]1CCC/C=C\[C@H]2C[C@H](O)C[C@@H]2[C@H](O)/C=C\C(=O)O1 [NCGC00017254-02, (+)-Brefeldin A] | 2890 | 44.7226 | 84.381 | 72.9816 | 
CCC(=C/[C@H](C)C/C=C/C(C)=C/[C@@H](C)C(=O)[C@@H](C)[C@H](O)[C@@H](C)C/C(C)=C/C(=O)O)/C=C/[C@@H]1OC(=O)C=C[C@@H]1C [NCGC00162440-02] | 48 | 28.333 | 90.0621 | 65.4242 | 
Cc1ccc2nc(NCCN)c3ncc(C)n3c2c1 [NCGC00165761-02] | 4050 | 20.5589 | 96.0167 |  | 77.5673
CN(c1ncccc1CNc1nc(Nc2ccc3c(c2)CC(=O)N3)ncc1C(F)(F)F)S(C)(=O)=O [NCGC00242495-01, PF-00562271] | 2320 | 15.5052 | 98.3015 | 64.5946 | 
COc1c(C)cnc(Cn2cnc3c(Cl)nc(N)nc32)c1C [NCGC00247877-01] | 329 | 17.8512 | 68.1668 |  | 91.8481
CCNC(=O)c1noc(-c2cc(C(C)C)c(O)cc2O)c1-c1ccc(CN2CCOCC2)cc1 [NCGC00247878-01] | 44 | 17.8831 | 63.2542 | 94.6315 | 
CCNC(=O)c1cc2c(-c3cc(OCCN4CCCC4)c(Cl)cc3Cl)nc(N)nc2s1 [NCGC00247879-01, NVP-BEP800] | 1790 | 22.6428 | 85.4541 |  | 89.936
Cc1cccc(Nc2nc(N[C@@H]3CCCC[C@H]3N)ncc2C(N)=O)c1 [NCGC00253909-01] | 25400 | 64.2535 | 86.8204 |  | 94.6197
Cc1ccc(-c2ncn(-c3ccc(Nc4nccc(-c5cccc(N6CCOCC6)c5)n4)cc3)n2)cn1 [NCGC00263146-01] | 1300 | 15.6493 | 82.9006 |  | 65.3662
O=C(O)c1ccc2c(c1)nc(Nc1cccc(Cl)c1)c1ccncc12 [NCGC00263192-02] | 10200 | 45.6416 | 93.7801 |  | 77.6315
C[C@@]12OC(=O)[C@]1([C@@H](O)[C@@H]1C=CCCC1)NC(=O)[C@H]2CCCl [NCGC00344630-01] | 1110 | 16.5036 | 96.8804 | 75.9573 | 
